Assay [1] has as its target T1, Type-2 angiotensin II receptor (Homo sapiens, UniProt P50052).
T1 sequence (P50052 whole entry): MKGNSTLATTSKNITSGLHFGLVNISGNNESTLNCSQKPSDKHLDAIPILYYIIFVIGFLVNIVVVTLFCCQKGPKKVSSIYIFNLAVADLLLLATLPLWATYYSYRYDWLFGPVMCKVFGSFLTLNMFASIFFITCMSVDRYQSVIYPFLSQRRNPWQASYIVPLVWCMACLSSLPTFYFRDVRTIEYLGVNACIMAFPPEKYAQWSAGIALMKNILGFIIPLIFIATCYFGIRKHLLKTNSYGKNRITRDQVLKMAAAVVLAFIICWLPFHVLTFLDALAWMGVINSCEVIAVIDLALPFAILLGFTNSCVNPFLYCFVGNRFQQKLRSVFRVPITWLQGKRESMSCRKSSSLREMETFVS
Briefly: Binding affinity for angiotensin II AT-2 receptor.

For assay [2], the target named is T2, Type-1 angiotensin II receptor (Homo sapiens, UniProt P30556).
T2 sequence (P30556 whole entry): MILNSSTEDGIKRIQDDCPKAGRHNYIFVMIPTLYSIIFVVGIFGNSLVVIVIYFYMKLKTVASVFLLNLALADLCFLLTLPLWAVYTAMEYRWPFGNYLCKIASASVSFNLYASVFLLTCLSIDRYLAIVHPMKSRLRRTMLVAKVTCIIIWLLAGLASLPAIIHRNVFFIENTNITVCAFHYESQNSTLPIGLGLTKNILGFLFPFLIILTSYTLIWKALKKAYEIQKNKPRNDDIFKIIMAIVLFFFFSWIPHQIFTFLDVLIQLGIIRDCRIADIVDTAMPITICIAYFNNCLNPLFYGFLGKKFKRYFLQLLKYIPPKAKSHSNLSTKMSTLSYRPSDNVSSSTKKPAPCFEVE
Briefly: Binding affinity for Angiotensin II receptor, type 1.

For assay [3], the system named is Rattus norvegicus. The assay is described as follows: Antihypertensive activity of compound was measured in renal hypertensive rat after iv administration. Type of assay: functional.
In assay [4] the test system is Rattus norvegicus. Briefly: Antihypertensive activity of compound was measured in renal hypertensive rat after oral administration. Type of assay: functional.

The values that follow come from ChEMBL document CHEMBL1150518, “Balanced angiotensin II receptor antagonists. III. The effects of substitution at the imidazole 5-position” (Bioorg Med Chem Lett, 1994).

Broadly, the IC50 is the concentration that inhibits the measured activity by half.

Take `CCCc1nc(CC)c(C(=O)O)n1Cc1ccc(-c2ccccc2-c2nnn[nH]2)cc1`: the half-inhibitory concentration (IC50) in assay [1] is greater than 1000 nM; in assay [2], 6 nM. Further, the ED30 with Rattus norvegicus [3] came to 0.005 mg/kg; in the assay on Rattus norvegicus [4] it was 0.03 mg/kg.

Regarding `CCCc1nc(CC)c(C(=O)OCc2ccccc2-c2ccccn2)n1Cc1ccc(-c2ccccc2S(=O)(=O)NC(=O)OCCC(C)C)cc1F`, the IC50 in assay [1] was found to be 3 nM; in assay [2], 0.3 nM.

In the case of `CCCc1nc(CC)c(C(=O)OCc2ccccc2Sc2ccccc2)n1Cc1ccc(-c2ccccc2S(=O)(=O)NC(=O)OCCC(C)C)cc1F`, the IC50 turned out to be 2 nM in assay [1] and 1 nM in assay [2].

Turning to `CCCCCCCOC(=O)NS(=O)(=O)c1ccccc1-c1ccc(Cn2c(CCC)nc(CC)c2C(=O)OCc2ccccc2OC)c(F)c1`, the figures for the half-maximal inhibitory concentration (IC50) in assay [1] and in assay [2] were 10 nM and 1 nM, respectively.

Consider `CCCc1nc(CC)c(C(=O)OCCN2C(=O)c3ccccc3C2=O)n1Cc1ccc(-c2ccccc2S(=O)(=O)NC(=O)OCCC(C)C)cc1F`, for which the figures for the IC50 in assay [1] and in assay [2] were 7 nM and 0.2 nM, respectively.

On to `CCCc1nc(CC)c(C(=O)OCc2ccccc2S(=O)(=O)c2ccccc2)n1Cc1ccc(-c2ccccc2S(=O)(=O)NC(=O)OCCC(C)C)cc1F`, for which the IC50 stood at 5 nM in assay [1] and 0.4 nM in assay [2].

For the compound `CCCc1nc(CC)c(C(=O)OCCCOc2ccccc2)n1Cc1ccc(-c2ccccc2S(=O)(=O)NC(=O)OCCC(C)C)cc1F`, the IC50 in assay [1] was found to be 2 nM; in assay [2], 0.1 nM.

For the compound `CCCc1nc(CC)c(C(=O)OCCCC(=O)c2ccccc2)n1Cc1ccc(-c2ccccc2S(=O)(=O)NC(=O)OCCC(C)C)cc1F`, the IC50 worked out at 5 nM in assay [1] and 0.1 nM in assay [2].

In the case of `CCCc1nc(CC)c(C(=O)OCCCOCc2ccccc2)n1Cc1ccc(-c2ccccc2S(=O)(=O)NC(=O)OCCC(C)C)cc1F`, the figures for the 50% inhibitory concentration (IC50) in assay [1] and in assay [2] were 2 nM and 0.1 nM, respectively.

As to `CCCOC(=O)NS(=O)(=O)c1ccccc1-c1ccc(Cn2c(CCC)nc(CC)c2C(=O)OCc2ccccc2C(=O)c2ccccc2)c(F)c1`, the IC50 was determined as 1.6 nM in assay [1] and 0.28 nM in assay [2]. The ED30 in the assay on Rattus norvegicus [3] came out at 0.08 mg/kg; in the assay with Rattus norvegicus [4] it was 0.7 mg/kg.

`CCCc1nc(CC)c(C(=O)OCc2ccccc2C(=O)Nc2ccccc2)n1Cc1ccc(-c2ccccc2S(=O)(=O)NC(=O)OCCC(C)C)cc1F`: the results for the IC50 in assay [1] and in assay [2] were 1 nM and 0.3 nM, respectively.

Turning to `CCCCOC(=O)NS(=O)(=O)c1ccccc1-c1ccc(Cn2c(CCC)nc(CC)c2C(=O)OCc2ccccc2C(=O)c2ccccc2)c(F)c1`, the IC50 in assay [1] was found to be 0.9 nM; in assay [2], 0.2 nM.

`CCCc1nc(CC)c(C(=O)OCCCSc2ccccc2)n1Cc1ccc(-c2ccccc2S(=O)(=O)NC(=O)OCCC(C)C)cc1F`: the IC50 in assay [1] was determined as 2 nM; in assay [2], 0.2 nM.

As to `CCCc1nc(CC)c(C(=O)OCc2ccccc2[S+]([O-])c2ccccc2)n1Cc1ccc(-c2ccccc2S(=O)(=O)NC(=O)OCCC(C)C)cc1F` (stereo not drawn), the IC50 in assay [1] is 2 nM; in assay [2], 0.2 nM.

With `CCCc1nc(CC)c(C(=O)OCc2ccccc2-c2cccs2)n1Cc1ccc(-c2ccccc2S(=O)(=O)NC(=O)OCCC(C)C)cc1F`, the half-inhibitory concentration (IC50) in assay [1] is 3 nM; in assay [2], 0.8 nM.

In the case of `CCCc1nc(CC)c(C(=O)OCc2ccccc2C(=O)c2ccccc2)n1Cc1ccc(-c2ccccc2S(=O)(=O)NC(=O)OCCC(C)C)cc1F`, the half-inhibitory concentration (IC50) in assay [1] was 0.7 nM; in assay [2], 0.5 nM. For the same compound, the ED30 came out at 0.05 mg/kg in the assay on Rattus norvegicus [3] and 0.9 mg/kg with Rattus norvegicus [4].
